# Measurements taken from patent US8952024B2, “Herbicidal pyrimidone derivatives” (E I du Pont de Nemours and Company, priority 2009, dated 2015).
# Columns and labels:
# Type in all cases: in vivo
# [1] = test system: sunflower (common oilseed sunflower, Helianthus annuus); experiment: Test B pre-/postemergence plant response; conditions: Preemergence; for Sunflower plant response rating: 125 g ai/ha
# How it was run: (§1)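 Visual ratings on a 0–100 scale (100 = complete control) were made versus untreated controls 13–15 days after treatment in a greenhouse. Compounds in surfactant-containing non-phytotoxic solvent were applied preemergence to seeds in loam–sand blend or postemergence to 1- to 4-leaf plants (2–18 cm).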
# [2] = test system: nightshade (eastern black nightshade, Solanum ptycanthum); experiment: Test B pre-/postemergence plant response; conditions: Preemergence; for Nightshade plant response rating: 125 g ai/ha
# How it was run: as §1
# [3] = test system: galium (catchweed bedstraw, Galium aparine); experiment: Test B pre-/postemergence plant response; conditions: Preemergence; for Galium plant response rating: 125 g ai/ha
# How it was run: as §1
# [4] = test system: windgrass (Apera spica-venti); experiment: Test B postemergence plant response
# How it was run: (§2)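 Plants grown in peat/vermiculite medium were sprayed postemergence at 2–18 cm height (1- to 4-leaf stage). After 13–15 days in the greenhouse, response was rated visually against untreated controls on a 0–100 scale (0 no effect, 100 complete control).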
# [5] = test system: canarygrass (Phalaris minor); experiment: Test B postemergence plant response
# How it was run: as §2
# [6] = test system: chickweed (Stellaria media); experiment: Test B postemergence plant response
# How it was run: as §2
# [7] = test system: winter barley (Hordeum vulgare); experiment: Test B postemergence plant response
# How it was run: as §2
# [8] = test system: large crabgrass (Digitaria sanguinalis); experiment: Test A pre-/postemergence plant response
# How it was run: (§3)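 Formulated test chemicals (non-phytotoxic solvent, surfactant) were sprayed onto soil right after planting and simultaneously onto young plants at one to two leaves, 2 to 10 cm tall. Plants stayed in the greenhouse about ten days; injury was then visually scored against untreated controls, from 0 (no effect) to 100 (complete control).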
# [9] = test system: velvetleaf (Abutilon theophrasti); experiment: Test A pre-/postemergence plant response
# How it was run: as §3
# [10] = test system: giant foxtail (Setaria faberii); experiment: Test A pre-/postemergence plant response
# How it was run: as §3
# [11] = test system: wheat (Triticum aestivum); experiment: Test A pre-/postemergence plant response
# How it was run: as §3
# [12] = test system: morningglory (Ipomoea spp.); experiment: Test A pre-/postemergence plant response
# How it was run: as §3
# corn (Zea mays) = experiment: Test A pre-/postemergence plant response
# How it was run: as §3
# [13] = test system: goosegrass (Eleusine indica); experiment: Test B pre-/postemergence plant response; conditions: Preemergence, 62 g ai/ha; scale 0 to 100, 0 no effect, 100 complete control
# [14] = 31 g ai/ha, scale 0 to 100 (0 no effect, 100 complete control)
# [15] = 62 g ai/ha, scale 0 to 100, 0 no effect, 100 complete control
# [16] = Postemergence, 31 g ai/ha, scale 0 to 100 (0 no effect, 100 complete control)
# [17] = Postemergence, 62 g ai/ha, scale 0 (no effect) to 100 (complete control), 13 to 15 days
# [18] = Postemergence, 125 g ai/ha, visual rating after 13 to 15 days, scale 0 (no effect) to 100 (complete control)
# [19] = Postemergence, 250 g ai/ha, scale 0 to 100
# [20] = Postemergence, 125 g ai/ha, visual injury, 0 to 100 scale (0 no effect, 100 complete control), approx. ten days
# [21] = Postemergence, 500 g ai/ha, 0 to 100 scale, 0 = no effect, 100 = complete control, approx. ten days
# [22] = Preemergence, 125 g ai/ha, 0 to 100 scale, 0 = no effect, 100 = complete control
# [23] = Preemergence, 500 g ai/ha, visual injury, 0 to 100 scale (0 no effect, 100 complete control), approx. ten days
# [24] = 31 g ai/ha, postemergence, scale 0 to 100, 0 is no effect, 100 is complete control
# [25] = Postemergence, 250 g ai/ha, scale 0 to 100 (0 no effect, 100 complete control)
smiles,measurement,setting,value
O=C1CCCC([O-])=C1C(=O)c1cnc(-c2ccccc2)n(-c2ccccc2)c1=O.[K+] [Compound 14],"Plant response rating, Sunflower","[1]; 250 g ai/ha, 0 to 100 scale",98
same,"Plant response rating, Sunflower",[1]; [14],50
same,"Plant response rating, Sunflower",[1]; [15],85
same,Sunflower plant response rating,[1]; 0 to 100 scale,85
same,"Plant response rating, Nightshade","[2]; 250 g ai/ha, 0 to 100 scale",100
same,"Plant response rating, Nightshade",[2]; [14],85
same,"Plant response rating, Nightshade",[2]; [15],98
same,Nightshade plant response rating,[2]; 0 to 100 scale,100
same,"Plant response rating, Galium","[3]; 250 g ai/ha, 0 to 100 scale",80
same,"Plant response rating, Galium",[3]; [14],0
same,"Plant response rating, Galium",[3]; [15],0
same,Galium plant response rating,[3]; 0 to 100 scale,40
same,"Plant response rating, Windgrass",[4]; [16],5
same,"Plant response rating, Windgrass",[4]; [17],30
same,"Plant response rating, Windgrass",[4]; [18],30
same,Windgrass plant response rating,[4]; [19],50
same,"Plant response rating, Canarygrass",[5]; [16],10
same,"Plant response rating, Canarygrass",[5]; [17],20
same,"Plant response rating, Canarygrass",[5]; [18],20
same,Canarygrass plant response rating,[5]; [19],50
same,"Plant response rating, Chickweed",[6]; [18],80
same,Chickweed plant response rating,[6]; [19],80
same,"Plant response rating, Barley",[7]; [16],0
same,"Plant response rating, Barley",[7]; [17],0
same,"Plant response rating, Barley","[7]; Postemergence, 125 g ai/ha, scale 0 to 100 (0 no effect, 100 complete control), 13 to 15 days",5
same,Barley plant response rating,[7]; [19],40
same,"Crabgrass, Large plant response rating",[8]; [20],30
same,"Plant response rating, Crabgrass, Large",[8]; [21],90
same,"Plant response rating, Crabgrass, Large",[8]; [22],30
same,"Plant response rating, Crabgrass, Large",[8]; [23],90
same,Velvetleaf plant response rating,[9]; [20],100
same,"Plant response rating, Velvetleaf",[9]; [21],100
same,"Plant response rating, Velvetleaf",[9]; [22],90
same,"Plant response rating, Velvetleaf",[9]; [23],100
same,"Foxtail, Giant plant response rating",[10]; [20],30
same,"Plant response rating, Foxtail, Giant",[10]; [21],90
same,"Plant response rating, Foxtail, Giant",[10]; [22],40
same,"Plant response rating, Foxtail, Giant",[10]; [23],90
same,Wheat plant response rating,[11]; [20],0
same,"Plant response rating, Wheat",[11]; [21],0
same,"Plant response rating, Wheat",[11]; [22],0
same,"Plant response rating, Wheat",[11]; [23],0
same,Morningglory plant response rating,[12]; [20],20
same,"Plant response rating, Morningglory",[12]; [21],100
same,"Plant response rating, Morningglory",[12]; [22],10
same,"Plant response rating, Morningglory",[12]; [23],60
same,Corn plant response rating,corn (Zea mays); [20],0
same,"Plant response rating, Corn",corn (Zea mays); [21],20
same,"Plant response rating, Corn",corn (Zea mays); [22],0
same,"Plant response rating, Corn",corn (Zea mays); [23],0
same,"Plant response rating, Goosegrass",[13],85
CCCn1c(-c2ccccc2)ncc(C(=O)C2=C(O)CCCC2=O)c1=O [Compound 50],"Plant response rating, Sunflower","[1]; 250 g ai/ha, 0 to 100 scale",85
same,"Plant response rating, Sunflower",[1]; [14],55
same,Sunflower plant response rating,[1]; 0 to 100 scale,85
same,"Plant response rating, Nightshade","[2]; 250 g ai/ha, 0 to 100 scale",100
same,"Plant response rating, Nightshade",[2]; [14],100
same,"Plant response rating, Nightshade",[2]; [15],100
same,Nightshade plant response rating,[2]; 0 to 100 scale,100
same,"Plant response rating, Galium","[3]; 250 g ai/ha, 0 to 100 scale",98
same,"Plant response rating, Galium",[3]; [14],70
same,"Plant response rating, Galium",[3]; [15],95
same,Galium plant response rating,[3]; 0 to 100 scale,95
same,"Plant response rating, Windgrass",[4]; [24],10
same,"Plant response rating, Windgrass",[4]; [17],50
same,"Plant response rating, Windgrass",[4]; [18],60
same,"Plant response rating, Windgrass",[4]; [25],80
same,"Plant response rating, Canarygrass",[5]; [24],0
same,"Plant response rating, Canarygrass",[5]; [17],0
same,"Plant response rating, Canarygrass",[5]; [18],5
same,"Plant response rating, Canarygrass",[5]; [25],5
same,"Plant response rating, Chickweed",[6]; [24],80
same,"Plant response rating, Chickweed",[6]; [17],80
same,"Plant response rating, Chickweed",[6]; [18],98
same,"Plant response rating, Chickweed",[6]; [25],98
same,"Plant response rating, Barley",[7]; [24],0
same,"Plant response rating, Barley",[7]; [17],0
same,"Plant response rating, Barley",[7]; [18],5
same,"Plant response rating, Barley",[7]; [25],5
same,"Crabgrass, Large plant response rating",[8]; [20],90
same,"Plant response rating, Crabgrass, Large",[8]; [21],90
same,"Plant response rating, Crabgrass, Large",[8]; [22],90
same,"Plant response rating, Crabgrass, Large",[8]; [23],100
same,Velvetleaf plant response rating,[9]; [20],100
same,"Plant response rating, Velvetleaf",[9]; [21],100
same,"Plant response rating, Velvetleaf",[9]; [22],80
same,"Plant response rating, Velvetleaf",[9]; [23],90
same,"Foxtail, Giant plant response rating",[10]; [20],90
same,"Plant response rating, Foxtail, Giant",[10]; [21],90
same,"Plant response rating, Foxtail, Giant",[10]; [22],50
same,"Plant response rating, Foxtail, Giant",[10]; [23],80
same,Wheat plant response rating,[11]; [20],0
same,"Plant response rating, Wheat",[11]; [21],0
same,"Plant response rating, Wheat",[11]; [22],0
same,"Plant response rating, Wheat",[11]; [23],0
same,Morningglory plant response rating,[12]; [20],80
same,"Plant response rating, Morningglory",[12]; [21],80
same,"Plant response rating, Morningglory",[12]; [22],40
same,"Plant response rating, Morningglory",[12]; [23],80
same,Corn plant response rating,corn (Zea mays); [20],0
same,"Plant response rating, Corn",corn (Zea mays); [21],30
same,"Plant response rating, Corn",corn (Zea mays); [22],0
same,"Plant response rating, Corn",corn (Zea mays); [23],0
same,"Plant response rating, Goosegrass",[13],98
